Assay results taken from PMC9948168, “Vanillin-Based Indolin-2-one Derivative Bearing a Pyridyl Moiety as a Promising Anti-Breast Cancer Agent via Anti-Estrogenic Activity” (ACS Omega, 2023).
Where two headings read alike, the source gives them in different places.

What was measured:
[1] = system: MCF-7 breast cancer cells; parameters: method as in doi:10.1016/j.bionut.2013.04.001; conditions: cited from earlier work
[2] = iCELLigence real-time cell analysis; format: cell-based, human; conditions: human, MCF-12A, 20 μM, relative to control, read-out: cell viability (% ± SEM)
Description: (§1) Therefore, compound 6j was applied in serial doses (2, 5, 10, 20, 50, and 100 μM) to MCF-7 cells and parallel to MCF-12A cells to determine the selectivity and safety. The treatments were performed 24 h after seeding the cells on system-specific biosensor-based plates. A total of 120 h of analyses were monitored, with cell viability measurements taken every 15 min. […] In addition, the viability percentage values for each dose in these periods were calculated and are summarized in Table 3 for MCF-7 and Table 4 for MCF-12A. […] In these treatments, cells were not killed dramatically after adding the highest two doses of 6j (100 and 50 μM); instead, they entered the stationary phase.
(§2) MCF-7 (Cat. no. HTB-22) (human estrogen receptor-positive breast cancer) and MCF-12A (Cat. no. CRL-10782) (human non-tumorigenic mammary epithelial) cell lines were obtained from the American Type Culture Collection (ATCC, Rockville, Maryland, USA). MCF-7 cells were maintained in Dulbecco’s modified Eagle’s medium (DMEM) (Biological Industries, Haemek, Israel) supplemented with 10% heat-inactivated fetal bovine serum (FBS) (Biowest, Nuaillé, France), 2 mM L-glutamine (Biological Industries, Haemek, Israel), 100 U/mL penicillin and 100 μg/mL streptomycin (Gibco, Waltham, MA, USA), and 2.5 μg/mL plasmocin (Invivogen, Toulouse, France) at 37 °C in a 5% CO2 humidified incubator. MCF-12A cells were cultured in a DMEM/F-12 Nutrient Mixture (Ham) (DMEM/F12 1:1 with HEPES and L-glutamine) (Gibco, Waltham, MA, USA) with 10% heat-inactivated FBS, 100 U/mL penicillin, 100 μg/mL streptomycin, and 10 μg/mL insulin (Humulin R, Lilly, Indianapolis, USA), 20 ng/mL epidermal growth factor (Abcam, Cambridge, UK), […] hydrocortisone (Dekort, Deva Ilac, Istanbul, Turkey), and 2.5 μg/mL plasmocin in a humidified atmosphere of 5% CO2 at 37 °C. The cells were routinely cultured in cell culture flasks and checked regularly under an inverted microscope. Cells reaching 80% confluency were passaged by treatment with 0.25% trypsin–EDTA. Total cell numbers were counted by the trypan blue dye exclusion method using a hemocytometer prior to the experiments.
(§3) The iCELLigence real-time cell analysis system was used to conduct a real-time and label-free examination of the activities of compound 6j on cells as we previously described.[62] In brief, following a background measurement with 200 μL of complete medium on iCELLigence E-plate L8, 100 μL of MCF-7 or MCF-12A cells was seeded at a density of 5.0 × 10^3 per well. During the 120 h monitoring, the system took impedance measurements via biosensors every 15 min. At the 24th h of incubation, the cells were treated with increasing concentrations of the 6j compound (2, 5, 10, 20, 50, and 100 μM) in duplicate. For cell culture experiments, compound 6j was dissolved in DMSO (Sigma, St. Louis, USA) at a stock concentration of 20 mM. For treatments, dilutions were prepared from 20 mM stock with a cell growth medium, with a final DMSO concentration of 0.1%. The medium containing 0.1% DMSO was also used as a negative control. […] Data were recorded by the iCELLigence software for 120 h and analyzed at the end of the study.

MCF-7 cells = assay: iCELLigence real-time cell analysis; format: cell-based, human; conditions: Homo sapiens, MCF7, MCF-7, 20 μM, relative to control, read-out: cell viability (% ± SEM)
Description: as §1, §2, §3

[3] = system: estrogen-induced uterotrophic effect; assay: In vivo anti-estrogenic (anti-uterotrophic) activity, immature rat model; parameters: species or system Wistar immature female rats; conditions: oral, 20 mg/kg (tamoxifen 20 mg/kg/day, 6j equimolar per method), 3 days, with estradiol 10 μg/kg/day s.c.; immature female rats
Description: The anti-estrogenic activity was assessed as previously described.[65]−[67] All experiments were carried out in accordance with the recommendations of the […] Animal Care and Use Committee. The experimental protocol was approved by “The Commission on the Ethics of Scientific Research”, Faculty of Pharmacy, Minia University (no. ES30/2021). 20-day-old Wistar immature female rats (40–50 g) from the animal care facility of Nahda University at Beni Suef (NUB) were allowed to acclimatize to lab conditions for 3 days before the experiment with free access to food and water. Estradiol was diluted in olive oil and subcutaneously injected on the loose dorsal skin in a dose of 10 μg/kg/day. […] Both compounds were dissolved in a mixture of DMSO, Tween 20, and saline (1:1:8, respectively) and orally administered. The rats were randomly assigned to […] (n = 6) subjected to daily s.c. injections of estradiol, except for the control group. […] On the 4th day, all rats were sacrificed by cervical dislocation, and the uteri were dissected free of fat and weighed immediately. […] The results were expressed as percent inhibition from the formula [drawing 1] […] It is noteworthy that doses of the tested compounds are calculated on a molar basis. […] Values are expressed as mean ± SEM.

Q: For `COc1ccc(C(=O)/C=C2/C(=O)Nc3ccc(Cl)cc32)cc1OC` [Compound III], which IC50 [1] is on record?
A: 3.59 µM

Q: What does the source list for `CC/C(=C(\c1ccccc1)c1ccc(OCCN(C)C)cc1)c1ccccc1` [tamoxifen, reference compound]?
A: viability at 72 h, 20 µM ([2]; MCF-12A cells (non-tumorigenic mammary epithelial), 72 h): 84 ± 0.01%; viability at 96 h, 20 µM ([2]; MCF-12A cells (non-tumorigenic mammary epithelial), 96 h): 84 ± 0.01%; viability at 24 h, 20 µM ([2]; MCF-12A cells, 24 h): 84 ± 0.01%; viability at 48 h, 20 µM ([2]; MCF-12A cells, 48 h): 84 ± 0.01%; viability at 20 µM (MCF-7 cells; 24 h): 86.84 ± 0.02%; viability at 20 µM (MCF-7 cells; 48 h): 86.84 ± 0.02%; viability at 20 µM (MCF-7 cells; 72 h): 85.59 ± 0.04%; viability at 20 µM (MCF-7 cells; 96 h): 80.31 ± 0.07%; anti-uterotrophic activity (inhibition of estrogen-induced uterine weight) [3]: 50%
